Data as given in patent US20220031840A1, “Method of Treatment” (HaemaLogix Pty Ltd, priority 2018, published 2022).

Legend:
[1] = test system: CCL27; assay: Biomarker analysis: serum CCL27; type: in vivo, human; conditions: adjusted for cytokine baseline differences
Protocol: (§1) Patient serum samples for biomarker analysis were collected approximately 30 minutes before infusion of kappamab and then at 6, 48, 192, and 1,080 hours after infusion for all patients. Samples were analysed in triplicate and serum levels of 48 human cytokines, chemokines, and growth factors were measured using the Bio-Plex Pro™ Human Cytokine 27-plex and 21-plex assays according to the manufacturer's recommendations (Bio-Rad, Carlsbad, Calif., USA; Cat No M10-0KCAF0Y, mg0-005KMII). Results were verified by repeating the 21-plex assay in triplicate and the samples were randomized across the assay plate. Pre-infusion samples were used as the baseline (t=0) for the analysis.
(§2) Multivariate analysis of the biomarker data was performed using R version 3.1.0 (2014-04-10) software (http://www.R-project.org/). Linear mixed effects modelling was completed using 1me4 (Bates et al. 2015). […]
(§3) To find significance between kappamab dose, time, and cytokine expression levels, we fitted a linear mixed-effects model that modelled cytokine fluorescence expression levels with fixed-effects terms for baseline cytokine fluorescence expression, kappamab dose (with 4 levels: 0.3, 1.0, 3.0, and 10 mg/kg), time (treated as factor with 5 levels), and cytokine with 48 levels, plus their interactions, with a random effect associated with patient (12 levels) and plex (2 levels). […]

[2] = test system: G-CSF; assay: Biomarker analysis: serum G-CSF; type: in vivo, human; conditions: adjusted for cytokine baseline differences
Protocol: as §1, §2, §3

[3] = test system: macrophage inhibitory factor (MIF); assay: Biomarker analysis: serum MIF; type: in vivo, human; conditions: adjusted for cytokine baseline differences
Protocol: as §1, §2, §3

[4] = test system: CXCL10; assay: Biomarker analysis: serum CXCL10; type: in vivo, human; conditions: adjusted for cytokine baseline differences
Protocol: as §1, §2, §3

[5] = test system: 48 human cytokines, chemokines, and growth factors; assay: Biomarker analysis, Bio-Plex 27-plex and 21-plex, mixed-effects model; type: in vivo; conditions: 48 cytokines
Protocol: as §1, §2, §3

[6] = test system: human anti-chimeric antibody (HACA) against kappamab; assay: Human anti-chimeric antibody (HACA) sandwich ELISA; type: in vivo; conditions: Day 45 post infusion, any patient
Protocol: Blood samples were taken at pre-infusion and at completion of the treatment phase (Day 45 post infusion) for measurement of HACA responses. The presence of HACA was measured using a validated sandwich ELISA. Briefly, kappamab was immobilized on ELISA plates and the captured antibodies were detected using biotinylated kappamab and ExtrAvidie-alkaline phosphatase (Sigma, USA) followed by the alkaline phosphatase (AP) substrate. Goat anti-human IgG was used as the positive control for the assay.

[7] = test system: serum κFLC; assay: Serum κFLC pharmacodynamics (FreeLite assay); type: in vivo, human
Description: (§4) Serum FLC levels were quantified using the FreeLite™ assay (The Binding Site Group Ltd, Birmingham, UK). […] Twenty-four-hour urine collection for urine protein electrophoresis immunofixation, urine FLC measurement (FreeLite™ assay), and creatinine clearance were collected on the day of infusion and on Day 45.

[8] = test system: urine κFLC; assay: 24-hour urine κFLC (FreeLite assay); type: in vivo, human
Description: as §4

Substance: kappamab: humanized form of K121 anti-KMA antibody; VH SEQ ID NO: 1, VL SEQ ID NO: 2
- Change in serum concentration [1]: dose-related decreases
- Change in serum concentration [2]: dose-related decreases
- Change in serum concentration [3]: dose-related decreases
- Change in serum concentration [4]: dose-related decreases
- Increases in serum cytokine concentrations in response to treatment [5]: No increases
- HACA response to kappamab [6]: no antibody responses to kappamab were detected
- Serum κFLC higher than baseline ([7]; Patient 2, during the study): up to 136%
- Serum κFLC higher than baseline ([7]; Patient 7, Day 1): 83%
- Serum κFLC increase from baseline ([7]; Patient 7, Day 30): 178%
- Serum κFLC increase from baseline ([7]; Patient 7, Day 45): 198%
- Serum κFLC versus baseline ([7]; Patient 7, by Day 105 post infusion): returned to below baseline
- Serum κFLC increase from baseline ([7]; Patient 13, 6 hours after IV infusion): 690%
- Serum κFLC below baseline ([7]; Patient 13, Day 45, remained for 3 months): 55%
- Patients with decreases in serum κFLC below baseline ([7]; after Day 15, 8/12 patients): 67%
- Change in serum κFLC levels following IV infusion ([7]; all patients): increase
- Serum κFLC versus baseline ([7]; by Day 45, majority of patients): generally similar to baseline values
- Dose dependency between serum κFLC increase and kappamab concentration ([7]; in vivo): no clear dose dependency
- Patients with a decrease in urine κFLC ([8]; Day 1, 8/12 patients): 67%
- Patients with a decrease in urine κFLC ([8]; Day 45 post infusion, 7/12 patients): 58%
- Urine κFLC ([8]; Patient 1, Day 1): 144 mg/24 hours
- Urine κFLC percent change from baseline ([8]; Patient 1, Day 1): −31%
- Urine κFLC ([8]; Patient 1, Day 45): 107 mg/24 hours
- Urine κFLC percent change from baseline ([8]; Patient 1, Day 45): −49%
- Urine κFLC ([8]; Patient 2, Day 1): 1902 mg/24 hours
- Urine κFLC percent change from baseline ([8]; Patient 2, Day 1): −27%
- Urine κFLC percent change from baseline ([8]; Patient 2, Day 45): −13%
- Urine κFLC ([8]; Patient 2, Day 45, exceeds upper limit of quantitation): > 2272 mg/24 hours
- Urine κFLC ([8]; Patient 3, Day 1): 1143 mg/24 hours
- Urine κFLC percent change from baseline ([8]; Patient 3, Day 1): −15%
- Urine κFLC ([8]; Patient 3, Day 45): 5964 mg/24 hours
- Urine κFLC percent change from baseline ([8]; Patient 3, Day 45): +343%
- Urine κFLC ([8]; Patient 4, Day 1): 24 mg/24 hours
- Urine κFLC percent change from baseline ([8]; Patient 4, Day 1): +85%
- Urine κFLC ([8]; Patient 4, Day 45): 18 mg/24 hours
- Urine κFLC percent change from baseline ([8]; Patient 4, Day 45): +38%
- Urine κFLC ([8]; Patient 5, Day 1): 31 mg/24 hours
- Urine κFLC percent change from baseline ([8]; Patient 5, Day 1): −68%
- Urine κFLC ([8]; Patient 5, Day 45): 103 mg/24 hours
- Urine κFLC percent change from baseline ([8]; Patient 5, Day 45): +6%
- Urine κFLC ([8]; Patient 6, Day 1): 38 mg/24 hours
- Urine κFLC percent change from baseline ([8]; Patient 6, Day 1): −17%
- Urine κFLC ([8]; Patient 6, Day 45): 45 mg/24 hours
- Urine κFLC percent change from baseline ([8]; Patient 6, Day 45): −2%
- Urine κFLC ([8]; Patient 7, Day 1): 390 mg/24 hours
- Urine κFLC percent change from baseline ([8]; Patient 7, Day 1): +25%
- Urine κFLC ([8]; Patient 7, Day 45): 286 mg/24 hours
- Urine κFLC percent change from baseline ([8]; Patient 7, Day 45): −8%
- Urine κFLC ([8]; Patient 8, Day 1): 34 mg/24 hours
- Urine κFLC percent change from baseline ([8]; Patient 8, Day 1): +278%
- Urine κFLC ([8]; Patient 8, Day 45): 25 mg/24 hours
- Urine κFLC percent change from baseline ([8]; Patient 8, Day 45): +178%
- Urine κFLC ([8]; Patient 9, Day 1): 49 mg/24 hours
- Urine κFLC percent change from baseline ([8]; Patient 9, Day 1): −13%
- Urine κFLC ([8]; Patient 9, Day 45): 39 mg/24 hours
- Urine κFLC percent change from baseline ([8]; Patient 9, Day 45): −30%
- Urine κFLC ([8]; Patient 10, Day 1): 13 mg/24 hours
- Urine κFLC percent change from baseline ([8]; Patient 10, Day 1): −69%
- Urine κFLC ([8]; Patient 10, Day 45): 40 mg/24 hours
- Urine κFLC percent change from baseline ([8]; Patient 10, Day 45): −5%
- Urine κFLC ([8]; Patient 12, Day 1): 297 mg/24 hours
- Urine κFLC percent change from baseline ([8]; Patient 12, Day 1): −9%
- Urine κFLC ([8]; Patient 12, Day 45): 363 mg/24 hours
- Urine κFLC percent change from baseline ([8]; Patient 12, Day 45): +11%
- Urine κFLC ([8]; Patient 13, Day 1): 166 mg/24 hours
- Urine κFLC percent change from baseline ([8]; Patient 13, Day 1): +12%
- Urine κFLC ([8]; Patient 13, Day 45): 29 mg/24 hours
- Urine κFLC percent change from baseline ([8]; Patient 13, Day 45): −80%
- Dose-related trend in urinary excretion of κFLC ([8]; within each dose cohort): no consistent dose-related trend
